Patent publication US10544095B2 (Pfizer Inc., priority 2015, dated 2020)

What was measured:
[1] = molecular target: human recombinant TDO2 enzyme (Homo sapiens (Human), UniProt P48775); experiment: Assay for TDO2 enzymatic activity determination; format: biochemical; details: human recombinant TDO2, L-Trp 1 mM, kynurenine absorbance at 480 nm
Procedure: The compounds of formula I, its subformulae, and enantiomers, salts and solvates thereof, are useful to inhibit the enzymatic activity of human TDO2. To measure the TDO2 activity, the procedure described in Dolusic et al. J. Med. Chem.; 2011, 54, […] was adapted: the reaction mixture contained (final concentrations) potassium phosphate buffer (50 mM, pH 7.5), ascorbic acid ([…]), methylene blue (0.125 μM), catalase (40 units/mL, from bovine liver, Sigma), and human recombinant TDO2 enzyme (prepared as described in Dolusic et al. J. Med. Chem.; 2011, 54, 5320-5334; 0.9 μg) without or with the compounds of the present invention at the indicated concentrations (total volume 112.5 μL). The reaction was initiated by the addition of 37.5 μL of L-Trp (final concentration 1 mM) at room temperature. The reaction was conducted at room temperature during one hour and stopped by the addition of 30 μL of 30% (w/v) trichloroacetic acid. To convert N-formylkynurenine into kynurenine, the reaction mixture was incubated at 65° C. for 30 min. […] Kynurenine concentrations were determined by measuring the absorbance at 480 nm. A standard curve was made with pure kynurenine. The TDO activity was measured as described above using ten serial concentrations of the compounds of the present invention. Data were fitted using the Prism™ software (GraphPad Software, Inc.) using standard parameters.

[2] = molecular target: hTDO2 in human glioblastoma A172 cells (Homo sapiens (Human), UniProt P48775); experiment: Cellular assay for TDO2 activity determination in A172 cells; format: cell-based; details: overnight incubation, kynurenine absorbance at 480 nm
hTDO2 in human glioblastoma A172 cells, sequence (P48775 whole entry): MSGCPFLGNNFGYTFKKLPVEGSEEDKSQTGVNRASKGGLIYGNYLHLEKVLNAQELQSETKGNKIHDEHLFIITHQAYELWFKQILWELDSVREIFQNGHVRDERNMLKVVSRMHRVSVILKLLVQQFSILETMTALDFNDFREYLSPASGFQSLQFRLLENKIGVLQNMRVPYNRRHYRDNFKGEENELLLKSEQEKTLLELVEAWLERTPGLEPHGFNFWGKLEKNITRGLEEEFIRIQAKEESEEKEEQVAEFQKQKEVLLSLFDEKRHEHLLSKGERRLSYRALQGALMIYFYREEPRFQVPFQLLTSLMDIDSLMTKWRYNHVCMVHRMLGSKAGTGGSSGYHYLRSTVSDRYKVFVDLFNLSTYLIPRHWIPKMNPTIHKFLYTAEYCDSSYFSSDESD
Outline: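 Glioblastoma A172 cells with endogenous hTDO2, 1.25×10^4 cells/well, incubated overnight at 37° C. with ten serial compound concentrations in IMDM with 2% FBS. Supernatant kynurenine, after TCA precipitation and 4-(dimethylamino)-benzaldehyde reaction, read at 480 nm against kynurenine standard curve; data curve-fitted.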

TDO2 = TDO2 (Mus musculus (Mouse), UniProt P48776); experiment: Pharmacodynamic assay for TDO2 in vivo activity: increase of blood tryptophan levels in mice; details: female BALB/c mice, plasma after two hours
TDO2, sequence (P48776 whole entry): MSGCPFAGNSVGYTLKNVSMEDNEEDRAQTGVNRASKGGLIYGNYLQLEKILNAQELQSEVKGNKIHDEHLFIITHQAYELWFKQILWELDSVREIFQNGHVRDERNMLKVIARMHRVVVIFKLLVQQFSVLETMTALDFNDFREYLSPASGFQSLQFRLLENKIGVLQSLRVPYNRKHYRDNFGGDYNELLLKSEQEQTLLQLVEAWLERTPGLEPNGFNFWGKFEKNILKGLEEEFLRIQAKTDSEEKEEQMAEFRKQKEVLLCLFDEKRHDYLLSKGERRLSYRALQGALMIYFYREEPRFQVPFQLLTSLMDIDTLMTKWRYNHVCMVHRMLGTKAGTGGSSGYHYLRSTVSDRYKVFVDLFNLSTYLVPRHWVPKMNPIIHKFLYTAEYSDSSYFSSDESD
Procedure: The compounds of the present invention increase the amount of Tryptophan in mouse blood. Briefly, female BALB/c mice (7-8 weeks old) were treated with either a suspension of one of the compounds of the present invention in 0.5% hydroxypropyl methyl cellulose (HPMC) K4M (4000 mPa·s (cPs), Methocell™, Dow chemical)/0.25% Tween® 20 (Sigma Aldrich) at different doses (30, 60 and 100 mg/kg), or with a vehicle control (0.5% HPMC K4M/0.25% Tween 20), by the oral route by gavage (dosing volume 5 mL/kg, 10 mice per group). After two hours, blood was harvested, plasma was prepared and the amount of Tryptophan present was determined by LC-MS-MS (HPLC column Unison UK-Phenyl, 75×4.6, 3 μm, flow rate 0.8 mL/min, 8 minutes gradient from 95% water+0.1% formic acid/5% Acetonitrile+0.1% formic acid to 5% water+0.1% formic acid/95% Acetonitrile+0.1% formic acid, retention time 2.4 min; API4000 MS-MS system from AB Sciex, ESI+ mode, parent ion 205.1, daughter ion 146.1).

human recombinant TDO2 enzyme, sequence (P48775 whole entry): as the sequence (P48775 whole entry) above

NCCNS(=O)(=O)c1ccc(-c2c[nH]c3cc(F)ccc23)cc1 [Example 8, N-(2-aminoethyl)-4-(6-fluoro-1H-indol-3-yl)-benzenesulfonamide]
IC50 [1]: 890 nM | IC50 [2]: 95 nM

NCCNS(=O)(=O)c1cccc(-c2c[nH]c3cc(F)ccc23)c1 [Example 9, N-(2-aminoethyl)-3-(6-fluoro-1H-indol-3-yl)benzenesulfonamide]
IC50 [1]: 1800 nM | IC50 [2]: 240 nM

NS(=O)(=O)c1cccc(-c2c[nH]c3cc(F)ccc23)c1 [Example 10, 3-(6-fluoro-1H-indol-3-yl)benzenesulfonamide]
IC50 [1]: 2400 nM | IC50 [2]: 83 nM

CC(=O)NCCNS(=O)(=O)c1ccc(-c2c[nH]c3cc(F)ccc23)cc1 [Example 16, N-(2-(4-(6-fluoro-1H-indol-3-yl)phenylsulfonamido)-ethyl)acetamide]
Trp in plasma (average ± standard error of the mean) (TDO2; 30 mg/kg oral gavage): 32700 ng/mL | Trp in plasma (average ± standard error of the mean) (TDO2; 60 mg/kg oral gavage): 35300 ng/mL | Trp in plasma (average ± standard error of the mean) (TDO2; 100 mg/kg oral gavage): 34000 ng/mL | IC50 [2]: 180 nM

CS(=O)(=O)NCCNS(=O)(=O)c1ccc(-c2c[nH]c3cc(F)ccc23)cc1 [Example 21, 4-(6-fluoro-1H-indol-3-yl)-N-(2-(methylsulfonamido)-ethyl)benzenesulfonamide]
IC50 [1]: 740 nM | IC50 [2]: 120 nM

NC(=O)CCNS(=O)(=O)c1ccc(-c2c[nH]c3cc(F)ccc23)cc1 [Example 26, 3-(4-(6-fluoro-1H-indol-3-yl)phenylsulfonamido)propanamide]
IC50 [1]: 730 nM | IC50 [2]: 110 nM

N#Cc1cc(-c2c[nH]c3cc(F)ccc23)ccc1S(=O)(=O)N1CCNCC1 [Example 32, 5-(6-Fluoro-1H-indol-3-yl)-2-(piperazine-1-sulfonyl)-benzonitrile]
IC50 [1]: 730 nM | IC50 [2]: 170 nM

Cc1cc(-c2c[nH]c3cc(F)ccc23)ccc1S(=O)(=O)N1CCNCC1 [Example 34, 6-fluoro-3-(3-methyl-4-(piperazin-1-ylsulfonyl)-phenyl)-1H-indole]
IC50 [1]: 520 nM | IC50 [2]: 290 nM

O=S(=O)(c1ccc(-c2c[nH]c3cc(F)ccc23)cc1O)N1CCNCC1 [Example 35, 5-(6-fluoro-1H-indol-3-yl)-2-(piperazin-1-ylsulfonyl)phenol]
IC50 [1]: 420 nM | IC50 [2]: 330 nM

NCCNS(=O)(=O)c1cc(-c2c[nH]c3cc(F)ccc23)ccc1Cl [Example 36, N-(2-aminoethyl)-2-chloro-5-(6-fluoro-1H-indol-3-yl)-benzenesulfonamide]
IC50 [1]: 770 nM | IC50 [2]: 430 nM

O=C1CN(S(=O)(=O)c2ccc(-c3c[nH]c4cc(F)ccc34)cc2)CCN1 [Example 40, 4-((4-(6-fluoro-1H-indol-3-yl)phenyl)sulfonyl)piperazin-2-one]
IC50 [1]: 930 nM | IC50 [2]: 170 nM

CNC(=O)CCNS(=O)(=O)c1ccc(-c2c[nH]c3cc(F)ccc23)cc1 [Example 50, 3-(4-(6-fluoro-1H-indol-3-yl)phenylsulfonamido)-N-methylpropanamide]
IC50 [1]: 960 nM | IC50 [2]: 110 nM

O=S(=O)(c1ccc(-c2c[nH]c3cc(F)ccc23)cc1)N1C[C@@H](O)[C@@H](O)C1 [Example 58, (cis)-1-((4-(6-fluoro-1H-indol-3-yl)phenyl)sulfonyl)-pyrrolidine-3,4-diol]
IC50 [1]: 530 nM | IC50 [2]: 130 nM

O=S(=O)(c1c(Cl)cc(-c2c[nH]c3cc(F)ccc23)cc1Cl)N1CCNCC1 [Example 76, 3-(3,5-dichloro-4-(piperazin-1-ylsulfonyl)phenyl)-6-fluoro-1H-indole]
IC50 [1]: 470 nM | IC50 [2]: 833 nM

O=S(=O)(c1ccc(-c2c[nH]c3cc(F)ccc23)cc1)N1CC[C@@H](O)C1 [Example 77, (R)-1-((4-(6-fluoro-1H-indol-3-yl)phenyl)sulfonyl)-pyrrolidin-3-ol]
IC50 [1]: 170 nM | IC50 [2]: 55 nM

O=S(=O)(c1ccc(-c2c[nH]c3cc(F)ccc23)cc1)N1CC[C@H](O)C1 [Example 79, (S)-1-((4-(6-fluoro-1H-indol-3-yl)phenyl)sulfonyl)-pyrrolidin-3-ol]
IC50 [1]: 120 nM | IC50 [2]: 94 nM

N[C@H]1CN(S(=O)(=O)c2ccc(-c3c[nH]c4cc(F)ccc34)cc2)C[C@@H]1F [Example 80, (3S,4 S)-4-fluoro-1-{[4-(6-fluoro-1H-indol-3-yl)phenyl]sulfonyl}pyrrolidin-3-amine]
IC50 [1]: 900 nM | IC50 [2]: 170 nM

NC(=O)COC1CCN(S(=O)(=O)c2ccc(-c3c[nH]c4cc(F)ccc34)cc2)CC1 [Example 84, 2-[(1-{[4-(6-fluoro-1H-indol-3-yl)phenyl]sulfonyl}piperidin-4-yl)-oxy]acetamide]
IC50 [1]: 1900 nM | IC50 [2]: 260 nM

CN1CC(CNS(=O)(=O)c2ccc(-c3c[nH]c4cc(F)ccc34)cc2)OCC1=O (centres unmarked) [Example 86, 4-(6-fluoro-1H-indol-3-yl)-N-[(4-methyl-5-oxomorpholin-2-yl)methyl]benzenesulfonamide]
IC50 [1]: 1300 nM | IC50 [2]: 260 nM

O=S1(=O)CCC(NS(=O)(=O)c2ccc(-c3c[nH]c4cc(F)ccc34)cc2)C1 (centres unmarked) [Example 87, N-(1,1-dioxidotetrahydrothiophen-3-yl)-4-(6-fluoro-1H-indol-3-yl)-benzenesulfonamide]
IC50 [1]: 930 nM | IC50 [2]: 170 nM

CS(=O)(=O)CCNS(=O)(=O)c1ccc(-c2c[nH]c3cc(F)ccc23)cc1 [Example 88, 4-(6-fluoro-1H-indol-3-yl)-N-[2-(methylsulfonyl)ethyl]-benzene-sulfonamide]
IC50 [1]: 940 nM | IC50 [2]: 95 nM

O=C1CCN(S(=O)(=O)c2ccc(-c3c[nH]c4cc(F)ccc34)cc2)CCN1 [Example 90, 1-((4-(6-fluoro-1H-indol-3-yl)phenyl)sulfonyl)-1,4-diazepan-5-one]
IC50 [1]: 2000 nM | IC50 [2]: 130 nM

C[C@@H](O)CNS(=O)(=O)c1ccc(-c2c[nH]c3cc(F)ccc23)cc1 [Example 93, (−)-(R)-4-(6-fluoro-1H-indol-3-yl)-N-(2-hydroxypropyl)-benzenesulfonamide]
IC50 [1]: 550 nM | IC50 [2]: 200 nM

C[C@H](O)CNS(=O)(=O)c1ccc(-c2c[nH]c3cc(F)ccc23)cc1 [Example 94, (+)-(S)-4-(6-fluoro-1H-indol-3-yl)-N-(2-hydroxypropyl)-benzenesulfonamide]
IC50 [1]: 840 nM | IC50 [2]: 300 nM

NC(=O)[C@H]1C[C@@H](NS(=O)(=O)c2ccc(-c3c[nH]c4cc(F)ccc34)cc2)C1 [Example 95, (cis)-3-(4-(6-fluoro-1H-indol-3-yl)phenylsulfon-amido)cyclobutanecarboxamide]
IC50 [1]: 1300 nM | IC50 [2]: 140 nM

C[C@H](CO)NS(=O)(=O)c1ccc(-c2c[nH]c3cc(F)ccc23)cc1 [Example 96, 4-(6-fluoro-1H-indol-3-yl)-N-[(2R)-1-hydroxypropan-2-yl]benzenesulfonamide]
IC50 [1]: 1000 nM | IC50 [2]: 160 nM

NC(=O)[C@H]1C[C@H](NS(=O)(=O)c2ccc(-c3c[nH]c4cc(F)ccc34)cc2)C1 [Example 97, (Trans)-3-(4-(6-fluoro-1H-indol-3-yl)phenyl-sulfonamido)cyclobutanecarboxamide]
IC50 [1]: 820 nM | IC50 [2]: 100 nM

CN(CCS(N)(=O)=O)S(=O)(=O)c1ccc(-c2c[nH]c3cc(F)ccc23)cc1 [Example 98, 4-(6-fluoro-1H-indol-3-yl)-N-methyl-N-(2-sulfamoylethyl)benzenesulfonamide]
IC50 [1]: 910 nM | IC50 [2]: 250 nM

O=S(=O)(NCCn1cncn1)c1ccc(-c2c[nH]c3cc(F)ccc23)cc1 [Example 99, 4-(6-fluoro-1H-indol-3-yl)-N-[2-(1H-1,2,4-triazol-1-yl)-ethyl]benzenesulfonamide]
IC50 [1]: 1100 nM | IC50 [2]: 300 nM

O=S(=O)(c1ccc(-c2c[nH]c3cc(F)ccc23)cc1)N1CCC(O)(c2cncnc2)C1 (centres unmarked) [Example 120, 1-((4-(6-fluoro-1H-indol-3-yl)phenyl)sulfonyl)-3-(pyrimidin-5-yl)pyrrolidin-3-ol]
IC50 [1]: 120 nM | IC50 [2]: 120 nM
